Laboratory results: patent US11447490B2, “Aromatic heterocyclic substituted olefin compound, preparation method for same, pharmaceutical composition of same, and applications thereof” (SHANGHAI YINGLI PHARMACEUTICAL CO., LTD, priority 2018, dated 2022)

target: ALK5 (Homo sapiens (Human), UniProt P36897); assay: Evaluation experiment of ALK5 enzyme activity inhibition IC50 (ADP-Glo kinase assay); assay type: biochemical; conditions: not given
Procedure: 1. Preparation of a 1× kinase buffer: 40 mM Tris (pH 7.5), 20 mM MgCl2, 0.10% BSA, 1 mM DTT.
2. Compound preparation: The final detection concentration of the compound was 10 μM, which was prepared to a 100-fold concentration, i.e., 1 mM. 100 μL of the 100-fold compound was added in the second well of the 384-well plate, and 60 μL of 100% DMSO was added to the other wells. […] 50 nL of the compound was transferred to the reaction plate with echo.
3. Kinase reaction: The kinase was added to a 1× kinase buffer to form a 2× enzyme solution. […] The polypeptide TGFbR1 (purchased from Signal Chem, catalog number T36-58) and ATP were added to a 1× kinase buffer to form a 2× substrate solution. The final concentration of the substrate solution was peptide TGFbR1 0.1 mg/mL, ATP 7 μM. 2.5 μL of the 2× enzyme solution was added to the 384-well reaction plate (there was already 50 nL of 100% DMSO dissolved compound), and a 1× kinase buffer was added to a negative control well. The reaction solution was incubated at room temperature for 10 minutes. 2.5 μL of 2× substrate solution was added to the 384-well reaction plate. The 384-well plate was covered and incubated at 30° C. for 1 hour. ADP-Glo reagent (purchased from Promege, catalog number v9102) was equilibrated to room temperature. 5 μL of ADP-Glo reagent was transferred to the reaction well of the 384-well plate to stop the reaction.
4. Detection of reaction results: 10 μL of kinase detection reagent was transferred to each well, shaken for 1 minute, and let stand at room temperature for 30 minutes. The sample luminescence value was read at Synegy.
5. Curve fitting: The data of the luminescence reading were copied from the Synegy program. The value of the luminescence reading was converted to inhibition percentage by a formula (inhibition percentage=(max−sample RLU)/(max−min)×100, where “min” was a fluorescence reading for a control sample without enzyme; “max” was a fluorescence reading for a sample with DMSO as a control). The data were imported into MS Excel and GraphPad Prism was used for curve fitting. IC50 value was calculated.

Sequence of ALK5 (P36897 34-503): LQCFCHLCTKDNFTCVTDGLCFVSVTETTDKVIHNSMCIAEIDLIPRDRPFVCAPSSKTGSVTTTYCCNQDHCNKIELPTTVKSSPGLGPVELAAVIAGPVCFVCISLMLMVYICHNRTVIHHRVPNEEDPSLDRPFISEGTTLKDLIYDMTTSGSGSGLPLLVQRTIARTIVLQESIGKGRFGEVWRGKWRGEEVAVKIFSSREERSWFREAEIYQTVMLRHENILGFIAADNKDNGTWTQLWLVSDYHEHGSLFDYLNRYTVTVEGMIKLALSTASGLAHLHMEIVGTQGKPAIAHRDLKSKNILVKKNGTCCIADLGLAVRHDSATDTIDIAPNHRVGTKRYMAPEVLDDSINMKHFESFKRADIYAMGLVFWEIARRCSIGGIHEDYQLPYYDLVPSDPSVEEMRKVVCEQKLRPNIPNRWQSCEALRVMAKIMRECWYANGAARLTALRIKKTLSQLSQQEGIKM

Row | Compound | IC50
1 | NC(=O)c1cnc2ccc(/C=C\c3cccc(C(F)(F)F)n3)cn12 [Compound 11] | 10 nM

same assay, conditions: ALK5 25 nM, peptide TGFbR1 0.1 mg/mL, ATP 7 μM, 30° C. 1 hour, ADP-Glo luminescence

Row | IC50 | Compound
2 | 5.1 nM | Cc1cccc(/C=C\c2ccn3ncc(C(N)=O)c3c2)n1 [Compound 13]
3 | 78 nM | Cc1cccc(/C=C\c2ccc3ncc(C(N)=O)nc3c2)n1 [Compound 14]
4 | 616 nM | Cc1cccc(/C=C(/C(=O)O)c2ccc3ncc(C(N)=O)n3c2)n1 [Compound 17]
5 | 34 nM | Cc1cccc(/C=C(/C(=O)N(C)C)c2ccc3ncc(C(N)=O)n3c2)n1 [Compound 20]

Row | Compound | IC50
6 | Cc1cccc(/C=C\c2ccc3ncc(C(=O)NC4CC4)n3c2)n1 [Compound 4] | 17 nM
7 | Cc1cccc(C2=C(c3ccc4ncc(C(N)=O)n4c3)CCCC2)n1 [Compound 16] | 48 nM
8 | Cc1cccc(/C=C(/C(=O)OC(C)(C)C)c2ccc3ncc(C(N)=O)n3c2)n1 [Compound 17a] | 6.6 nM
